Each compound was assayed on HCT116 MTAP-deleted cell lines (assay: Cell viability assay for HCT116 isogenic pair (CellTitre-Glo, 7 days)). Details: Homo sapiens, HCT-116, 168 h, 7 days of treatment, cell line not given.
Format: cell-based
Description: Control compounds were analyzed in parallel each time for quality control.
In Brief, on Day −1, a serial dilution of stock compounds in DMSO was performed using BioMek liquid handlers and dispensed using Echo acoustic dispenser into 384 well plates. Both tool compounds and sample compounds were spotted in the same plate for a dose response of PRMT5 inhibitors. Compound plates were stored as frozen until the cells were ready for seeding.
On Day 0, 100 HCT WT or HCT116 MTAP-deleted cells were seeded in compound-containing 384 well plates (50 μl per well) in RPMI 1640 media supplemented with 10% heat inactivated fetal bovine serum, Glutamax and penicillin streptomycin using EL460 liquid dispenser 5 μl cassette (BioTek, part no. 7170011). After equilibrating the plate in room temperature, the cells were incubated for 7 days inside the sealed incubator set at 37° C. with 90% humidity and 5% CO2.
On Day 7, the viability of cells was measured using a CTG assay kit (CellTitre-Glo; Promega cat no. G7573). Shortly, 40 μl per well of luminescent cell viability assay reagent were dispensed using EL460 liquid dispenser 5 μl cassette. CTG luminescence signal was measured using an EnVision plate reader (PerkinElmer) in accordance with manufacturer's instruction. The CCso values for each compound after 7 days of treatment were calculated using 4 parameter non-linear logistical curve fit.
For the cell viability assay ie CC50 shown in nM in Table 3.
Compound `Nc1nc2cnc(C(=O)N3CCC[C@@H]4Oc5cc(C(F)(F)F)ccc5[C@@H]43)cc2c2c1COC2` (racemic) [Example Ca-1, (Rac)-(4-amino-1,3-dihydrofuro[3,4-c][1,7]naphthyridin-8-yl)((4aS,9bS)-7-(trifluoromethyl)-3,4,4a,9b-tetrahydrobenzofuro[3,2-b]pyridin-1(2H)-yl)methanone] has a CC50 of 26 nM. Work on `[2H]C1([2H])CC[C@@H]2Oc3cc(C(F)(F)F)cc(F)c3[C@@H]2N1C(=O)c1cc2c3c(c(N)nc2cn1)COC3` [Example Ca-58, (4-amino-1,3-dihydrofuro[3,4-c][1,7]naphthyridin-8-yl)((4aS,9bS)-9-fluoro-7-(trifluoromethyl)-3,4,4a,9b-tetrahydrobenzofuro[3,2-b]pyridin-1(2H)-yl-2,2-d2)methanone] yielded a CC50 of 9 nM. `Nc1nc2cnc(C(=O)N3CC[C@H]4C[C@@H]3c3ccc(C(F)(F)F)nc3O4)cc2c2c1COC2` [Example Ca-18, (4-amino-1,3-dihydrofuro[3,4-c][1,7]naphthyridin-8-yl)((2S,6R)-9-(trifluoromethyl)-3,4-dihydro-2H-2,6-methanopyrido[2,3-b][1,5]oxazocin-5(6H)-yl)methanone] showed a CC50 of 34 nM. With `C[C@H]1CN(C(=O)c2cc3c(cc2F)nc(N)c2cnn(C)c23)[C@H]2c3ccc(C(F)(F)F)cc3C[C@H]2O1` [Example Ca-22, (4-amino-7-fluoro-1-methyl-1H-pyrazolo[4,3-c]quinolin-8-yl)((2S,4aS,9aR)-2-methyl-7-(trifluoromethyl)-2,3,9,9a-tetrahydroindeno[2,1-b][1,4]oxazin-4(4aH)-yl)methanone] the CC50 was 11 nM. Compound `Cn1ncc2c(N)nc3cnc(C(=O)N4CCO[C@@H]5Cc6cc(Cl)ccc6[C@@H]54)cc3c21` [Example Ca-35, (4-amino-1-methyl-1H-pyrazolo[4,3-c][1,7]naphthyridin-8-yl)((4aS,9aR)-7-chloro-2,3,9,9a-tetrahydroindeno[2,1-b][1,4]oxazin-4(4aH)-yl)methanone] has a CC50 of 36 nM. For `Cn1ncc2c(N)nc3cnc(C(=O)N4CCO[C@@H]5Cc6cc(Br)ccc6[C@@H]54)cc3c21` [Example Ca-33, (4-amino-1-methyl-1H-pyrazolo[4,3-c][1,7]naphthyridin-8-yl)((4aS,9aR)-7-bromo-2,3,9,9a-tetrahydroindeno[2,1-b][1,4]oxazin-4(4aH)-yl)methanone], the CC50 was 9 nM. Compound `Cn1ncc2c(N)nc3cnc(C(=O)N4CCC[C@@H]5Oc6cc(C(F)(F)F)ccc6[C@@H]54)cc3c21` [Example Ca-19, (4-amino-1-methyl-1H-pyrazolo[4,3-c][1,7]naphthyridin-8-yl)((4aS,9bS)-7-(trifluoromethyl)-3,4,4a,9b-tetrahydrobenzofuro[3,2-b]pyridin-1(2H)-yl)methanone] has a CC50 of 6 nM. `Cn1ncc2c(N)nc3cnc(C(=O)N4CC[C@H]5C[C@@H]4c4ccc(Cl)c(F)c45)cc3c21` [Example Ca-42, (4-amino-1-methyl-1H-pyrazolo[4,3-c][1,7]naphthyridin-8-yl)((1R,5S)-7-chloro-6-fluoro-1,3,4,5-tetrahydro-2H-1,5-methanobenzo[c]azepin-2-yl)methanone] showed a CC50 of 25 nM. For `Cn1ncc2c(N)nc3cnc(C(=O)N4CC[C@H]5C[C@@H]4c4ccc(C(F)(F)F)nc4O5)cc3c21` [Example Ca-2, (4-amino-1-methyl-1H-pyrazolo[4,3-c][1,7]naphthyridin-8-yl)((2S,6R)-9-(trifluoromethyl)-3,4-dihydro-2H-2,6-methanopyrido[2,3-b][1,5]oxazocin-5(6H)-yl)methanone], the CC50 was 8 nM. With `CN(C(=O)c1cc2c(cn1)nc(N)c1cnn(C)c12)[C@H]1c2ccc(C(F)(F)F)cc2[C@@H]2C[C@@H]21` (single isomer, unassigned) [Example Ca-25] the CC50 was 43 nM. For `Cn1ncc2c3cc(C(=O)N4CCC[C@@H]5Oc6cc(C(F)(F)F)ccc6[C@@H]54)ncc3nc(N)c21` [Example Ca-43, (4-amino-3-methyl-3H-pyrazolo[3,4-c][1,7]naphthyridin-8-yl)((4aS,9bS)-7-(trifluoromethyl)-3,4,4a,9b-tetrahydrobenzofuro[3,2-b]pyridin-1(2H)-yl)methanone], the CC50 was 56 nM. For `Cn1ncc2c(N)nc3cnc(C(=O)N4CC[C@H]5C[C@@H]4c4ccc(C(F)(F)F)cc4O5)cc3c21` [Example Ca-45, (4-amino-1-methyl-1H-pyrazolo[4,3-c][1,7]naphthyridin-8-yl)((2S,6R)-9-(trifluoromethyl)-3,4-dihydro-2H-2,6-methanobenzo[b][1,5]oxazocin-5(6H)-yl)methanone], the CC50 was 5 nM. Compound `C[C@@H]1C[C@@H]2CCc3cc(C(F)(F)F)ccc3[C@@H]2N(C(=O)c2cc3c(cn2)nc(N)c2cnn(C)c23)C1` (racemic) [Example Ca-39, (Rac)-(4-amino-1-methyl-1H-pyrazolo[4,3-c][1,7]naphthyridin-8-yl)((3R,4aS,10bR)-3-methyl-8-(trifluoromethyl)-3,4,4a,5,6,10b-hexahydrobenzo[h]quinolin-1(2H)-yl)methanone] has a CC50 of 79 nM. `Cn1ncc2c(N)nc3cnc(C(=O)N4CCO[C@@H]5Cc6cc(C(F)(F)F)cc(F)c6[C@@H]54)cc3c21` [Example Ca-51, (4-amino-1-methyl-1H-pyrazolo[4,3-c][1,7]naphthyridin-8-yl)((4aS,9aR)-5-fluoro-7-(trifluoromethyl)-2,3,9,9a-tetrahydroindeno[2,1-b][1,4]oxazin-4(4aH)-yl)methanone] was tested, and the CC50 was 195 nM. Work on `Nc1nc2cnc(C(=O)N3CCC[C@@H]4Oc5nc(C(F)(F)F)ccc5[C@@H]43)cc2c2c1COC2` (racemic) [Example Ca-32, Rac-(4-amino-1,3-dihydrofuro[3,4-c][1,7]naphthyridin-8-yl)((4aS,9bS)-7-(trifluoromethyl)-3,4,4a,9b-tetrahydrofuro[2,3-b:4,5-b′]dipyridin-1(2H)-yl)methanone] yielded a CC50 of 54 nM. In the case of `Cn1ncc2c(N)nc3cnc(C(=O)N4CCO[C@@H]5Cc6cc(OC(F)(F)F)ccc6[C@@H]54)cc3c21` [Example Ca-53, (4-amino-1-methyl-1H-pyrazolo[4,3-c][1,7]naphthyridin-8-yl)((4aS,9aR)-7-(trifluoromethoxy)-2,3,9,9a-tetrahydroindeno[2,1-b][1,4]oxazin-4(4aH)-yl)methanone], the CC50 was 33 nM. `Cn1ncc2c(N)nc3cnc(C(=O)N4CC[C@H]5C[C@@H]4c4ccc(OC(F)F)cc45)cc3c21` [Example Ca-15, (4-amino-1-methyl-1H-pyrazolo[4,3-c][1,7]naphthyridin-8-yl)((1R,5S)-7-(difluoromethoxy)-1,3,4,5-tetrahydro-2H-1,5-methanobenzo[c]azepin-2-yl)methanone] was tested, and the CC50 was 10 nM. For `CN(C(=O)c1cc2c(cn1)nc(N)c1cnn(C)c12)[C@H]1c2ccc(C(F)(F)F)cc2[C@H]2C[C@H]21` (single isomer, unassigned) [Example Ca-26], the CC50 was 25 nM. For `Cn1ncc2c(N)nc3cnc(C(=O)N4CCO[C@@H]5Cc6cc(Br)c(F)cc6[C@@H]54)cc3c21` [Example Ca-29, (4-amino-1-methyl-1H-pyrazolo[4,3-c][1,7]naphthyridin-8-yl)((4aS,9aR)-7-bromo-6-fluoro-2,3,9,9a-tetrahydroindeno[2,1-b][1,4]oxazin-4(4aH)-yl)methanone], the CC50 was 5 nM. Work on `Cn1ncc2c3cc(C(=O)N4CCC[C@@H]5Oc6cc(C(F)(F)F)cc(F)c6[C@@H]54)ncc3nc(N)c21` [Example Ca-52, (4-amino-3-methyl-3H-pyrazolo[3,4-c][1,7]naphthyridin-8-yl)((4aS,9bS)-9-fluoro-7-(trifluoromethyl)-3,4,4a,9b-tetrahydrobenzofuro[3,2-b]pyridin-1(2H)-yl)methanone] yielded a CC50 of 48 nM. For `Nc1nc2cnc(C(=O)N3C[C@@H](F)C[C@@H]4Oc5cc(C(F)(F)F)cc(F)c5[C@@H]43)cc2c2c1COC2` [Example Ca-57, (4-amino-1,3-dihydrofuro[3,4-c][1,7]naphthyridin-8-yl)((3S,4aS,9bS)-3,9-difluoro-7-(trifluoromethyl)-3,4,4a,9b-tetrahydrobenzofuro[3,2-b]pyridin-1(2H)-yl)methanone], the CC50 was 20 nM. `Cn1ncc2c(N)nc3cnc(C(=O)N4CCO[C@@H]5Cc6cc(C(F)(F)F)ccc6[C@@H]54)cc3c21` [Example Ca-54, (4-amino-1-methyl-1H-pyrazolo[4,3-c][1,7]naphthyridin-8-yl)((4aS,9aR)-7-(trifluoromethyl)-2,3,9,9a-tetrahydroindeno[2,1-b][1,4]oxazin-4(4aH)-yl)methanone] showed a CC50 of 16 nM. `CN(C(=O)c1cc2c(cn1)nc(N)c1cnn(C)c12)[C@@H]1c2ccc(C(F)(F)F)cc2[C@@H]2C[C@H]12` (single isomer, unassigned) [Example Ca-28] gave a CC50 of 1290 nM. Work on `Cn1ncc2c(N)nc3cnc(C(=O)N4CC[C@@H]5C[C@H]4c4ccc(OC(F)F)cc45)cc3c21` [Example Ca-16, (4-amino-1-methyl-1H-pyrazolo[4,3-c][1,7]naphthyridin-8-yl)((1S,5R)-7-(difluoromethoxy)-1,3,4,5-tetrahydro-2H-1,5-methanobenzo[c]azepin-2-yl)methanone] yielded a CC50 of 91 nM.

Source: patent publication US20250154172A1, “PRMT5 INHIBITORS AND USES THEREOF” (Gilead Sciences, Inc., priority 2023, published 2025)
